Measurements from patent publication US20060069132A1, “Azolecarboxamide herbicides” (priority 2004, published 2006).

How the values were obtained:
velvetleaf [1] = experiment: Test A pre-/postemergence herbicide test; format: in vivo, Abutilon theophrasti
How it was run: (§1)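 Seeds sown in sandy loam received a preemergence directed soil spray of compound in non-phytotoxic solvent with surfactant; postemergence plants (2–10 cm, one- to two-leaf stage) were sprayed to runoff at the same time. After ~10 days in greenhouse, injury was rated visually versus untreated controls (0 = no effect, 100 = complete control).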

barnyardgrass [2] = experiment: Test A pre-/postemergence herbicide test; format: in vivo, Echinochloa crus-galli
How it was run: as §1

barnyardgrass [3] = experiment: Test B pre-/postemergence herbicide test; format: in vivo, Echinochloa crus-galli; conditions: for Barnyardgrass plant response rating: postemergence
How it was run: (§2)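 Seeds were planted and treated preemergence with compounds formulated in a non-phytotoxic solvent mixture containing surfactant, while plants at the 1- to 4-leaf stage (2 to 18 cm) received postemergence sprays. Flooded paddy plants were grown to the 2-leaf stage. After 13 to 15 days in a greenhouse, injury was visually rated 0–100 against untreated controls.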

rice [4] = experiment: Test B flooded paddy test; format: in vivo, Oryza sativa; conditions: 1000 g ai/ha, scale 0 to 100 (0 no effect, 100 complete control)
How it was run: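 Treated at 2-leaf (paddy) or 1–4-leaf, 2–18 cm (postemergence); greenhouse 13–15 d; visual score vs control, 0 none to 100 complete control; dash = not tested.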

blackgrass = experiment: Test B postemergence herbicide test; format: in vivo, Alopecurus myosuroides; conditions: postemergence
How it was run: (§3)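 Postemergence plants were sprayed with formulated test chemicals at 2 to 18 cm height (1- to 4-leaf stage); paddy species were grown to the 2-leaf stage. After 13 to 15 days in a greenhouse, injury was rated visually against untreated controls on a 0–100 scale (0 = no effect, 100 = complete control).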

corn = experiment: Test B pre-/postemergence herbicide test; format: in vivo, Zea mays; conditions: for Corn plant response rating: postemergence
How it was run: (§4)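 Herbicidal effect was judged by eye on a 0–100 scale after plants stood 13 to 15 days in the greenhouse following pre- or postemergence treatment with surfactant-containing formulations.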

large crabgrass [5] = experiment: Test B pre-/postemergence herbicide test; format: in vivo, Digitaria sanguinalis; conditions: for Crabgrass, Large plant response rating: postemergence
How it was run: as §4

giant foxtail [6] = experiment: Test B pre-/postemergence herbicide test; format: in vivo, Setaria faberi; conditions: for Foxtail, Giant plant response rating: postemergence
How it was run: as §4

wheat = experiment: Test B postemergence herbicide test; format: in vivo, Triticum aestivum; parameters: key to Wheat plant response rating: 0 = no effect, 100 = complete control; conditions: postemergence
How it was run: (§5)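 Greenhouse test; postemergence application to plants at 1–4 leaves (2–18 cm); paddy species at 2 leaves; evaluated visually vs controls at 13–15 days; scale 0–100 (100 = complete control).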

barnyardgrass [7] = experiment: Test B flooded paddy test; format: in vivo, Echinochloa crus-galli; conditions: 1000 g ai/ha, scale 0 to 100 (0 no effect, 100 complete control)
How it was run: as §3

morningglory [8] = experiment: Test A pre-/postemergence herbicide test; format: in vivo, Ipomoea spp.
How it was run: as §1

giant foxtail [9] = experiment: Test A pre-/postemergence herbicide test; format: in vivo, Setaria faberi
How it was run: as §1

lambsquarters = experiment: Test B pre-/postemergence herbicide test; format: in vivo, Chenopodium album; conditions: for Lambsquarters plant response rating: postemergence
How it was run: as §4

large crabgrass [10] = experiment: Test A pre-/postemergence herbicide test; format: in vivo, Digitaria sanguinalis
How it was run: as §1

[11] = tested on: small flower umbrella sedge; experiment: Test B flooded paddy test; format: in vivo, Cyperus difformis; conditions: 1000 g ai/ha, scale 0 to 100 (0 no effect, 100 complete control)
How it was run: as §3

ducksalad = experiment: Test B flooded paddy test; format: in vivo, Heteranthera limosa; conditions: 1000 g ai/ha, scale 0 to 100 (0 no effect, 100 complete control)
How it was run: as §3

cocklebur = experiment: Test B pre-/postemergence herbicide test; format: in vivo, Xanthium strumarium; conditions: for Cocklebur plant response rating: postemergence
How it was run: as §2

wild oat = experiment: Test B postemergence herbicide test; format: in vivo, Avena fatua; conditions: postemergence
How it was run: as §5

velvetleaf [12] = experiment: Test B pre-/postemergence herbicide test; format: in vivo, Abutilon theophrasti; conditions: for Velvetleaf plant response rating: postemergence
How it was run: as §4

rice [13] = experiment: Test B pre-/postemergence herbicide test; format: in vivo, Oryza sativa; conditions: 0 = no effect, 100 = complete control, preemergence
How it was run: as §4

pigweed = experiment: Test B pre-/postemergence herbicide test; format: in vivo, Amaranthus retroflexus; conditions: for Pigweed plant response rating: postemergence
How it was run: as §4

redroot pigweed = experiment: Test A pre-/postemergence herbicide test; format: in vivo, Amaranthus retroflexus
How it was run: as §1

morningglory [14] = experiment: Test B pre-/postemergence herbicide test; format: in vivo, Ipomoea coccinea; conditions: for Morningglory plant response rating: postemergence
How it was run: as §2

Surinam grass = experiment: Test B pre-/postemergence herbicide test; format: in vivo, Urochloa decumbens; conditions: for Surinam Grass plant response rating: postemergence
How it was run: as §4

[15] = Postemergence, 500 g ai/ha, 0 to 100 scale, 0 no effect, 100 complete control
[16] = Postemergence, 2000 g ai/ha, 0 to 100 scale, 0 no effect, 100 complete control
[17] = Preemergence, 2000 g ai/ha, visual rating, 0 to 100 scale (0 no effect, 100 complete control)
[18] = preemergence, 500 g ai/ha, visual injury, 0 to 100 scale (0 no effect, 100 complete control)
[19] = 125 g ai/ha, 0 = no effect, 100 = complete control, preemergence
[20] = 500 g ai/ha, visual rating, 0 = no effect, 100 = complete control, preemergence
[21] = 125 g ai/ha, visual rating, scale 0 (no effect) to 100 (complete control)
[22] = 500 g ai/ha, scale 0 to 100, 0 is no effect, 100 is complete control

CCn1nc(C(C)(C)C)cc1C(=O)Nc1nc(C(=O)N(C)C)ccc1F [Compound 277]
Velvetleaf plant response rating (velvetleaf [1]; [15]): 25
Plant response rating, Velvetleaf (velvetleaf [1]; [16]): 30
Velvetleaf plant response rating (velvetleaf [1]; [17]): 45
Velvetleaf plant response rating (velvetleaf [1]; [18]): 5
Barnyardgrass plant response rating (barnyardgrass [2]; [15]): 0
Plant response rating, Barnyardgrass (barnyardgrass [2]; [16]): 50
Barnyardgrass plant response rating (barnyardgrass [2]; [17]): 70
Barnyardgrass plant response rating (barnyardgrass [2]; [18]): 0
Barnyardgrass plant response rating (0 to 100 scale) (barnyardgrass [3]; [19]): 0
Plant response rating, Barnyardgrass (barnyardgrass [3]; [20]): 0
Barnyardgrass plant response rating (barnyardgrass [3]; [21]): 0
Barnyardgrass plant response rating (barnyardgrass [3]; [22]): 0
Rice plant response rating (rice [4]): 0
Blackgrass plant response rating (blackgrass; [21]): 10
Blackgrass plant response rating (blackgrass; [22]): 20
Corn plant response rating (0 to 100 scale) (corn; [19]): 0
Plant response rating, Corn (corn; [20]): 0
Corn plant response rating (corn; [21]): 0
Corn plant response rating (corn; [22]): 10
Crabgrass, Large plant response rating (0 to 100 scale) (large crabgrass [5]; [19]): 0
Plant response rating, Crabgrass, Large (large crabgrass [5]; [20]): 0
Crabgrass, Large plant response rating (large crabgrass [5]; [21]): 0
Crabgrass, Large plant response rating (large crabgrass [5]; [22]): 0
Foxtail, Giant plant response rating (0 to 100 scale) (giant foxtail [6]; [19]): 0
Plant response rating, Foxtail, Giant (giant foxtail [6]; [20]): 0
Foxtail, Giant plant response rating (giant foxtail [6]; [21]): 0
Foxtail, Giant plant response rating (giant foxtail [6]; [22]): 0
Wheat plant response rating (wheat; [21]): 20
Wheat plant response rating (wheat; [22]): 20
Barnyardgrass plant response rating (barnyardgrass [7]): 0
Morningglory plant response rating (morningglory [8]; [15]): 0
Plant response rating, Morningglory (morningglory [8]; [16]): 0
Morningglory plant response rating (morningglory [8]; [17]): 0
Morningglory plant response rating (morningglory [8]; [18]): 0
Foxtail, Giant plant response rating (giant foxtail [9]; [15]): 0
Plant response rating, Foxtail, Giant (giant foxtail [9]; [16]): 0
Foxtail, Giant plant response rating (giant foxtail [9]; [17]): 55
Foxtail, Giant plant response rating (giant foxtail [9]; [18]): 0
Lambsquarters plant response rating (0 to 100 scale) (lambsquarters; [19]): 40
Plant response rating, Lambsquarters (lambsquarters; [20]): 80
Lambsquarters plant response rating (lambsquarters; [21]): 20
Lambsquarters plant response rating (lambsquarters; [22]): 30
Crabgrass, Large plant response rating (large crabgrass [10]; [15]): 0
Plant response rating, Crabgrass, Large (large crabgrass [10]; [16]): 0
Crabgrass, Large plant response rating (large crabgrass [10]; [17]): 25
Crabgrass, Large plant response rating (large crabgrass [10]; [18]): 0
Sedge, Umbrella plant response rating [11]: 0
Ducksalad plant response rating (ducksalad): 0
Cocklebur plant response rating (0 to 100 scale) (cocklebur; [19]): 0
Plant response rating, Cocklebur (cocklebur; [20]): 10
Cocklebur plant response rating (cocklebur; [21]): 0
Cocklebur plant response rating (cocklebur; [22]): 0
Oat, Wild plant response rating (wild oat; [21]): 10
Oat, Wild plant response rating (wild oat; [22]): 20
Velvetleaf plant response rating (0 to 100 scale) (velvetleaf [12]; [19]): 0
Plant response rating, Velvetleaf (velvetleaf [12]; [20]): 40
Velvetleaf plant response rating (velvetleaf [12]; [21]): 20
Velvetleaf plant response rating (velvetleaf [12]; [22]): 20
Rice plant response rating (0 to 100 scale) (rice [13]; 125 g ai/ha): 0
Plant response rating, Rice (rice [13]; 500 g ai/ha, visual rating): 20
Pigweed plant response rating (0 to 100 scale) (pigweed; [19]): 60
Plant response rating, Pigweed (pigweed; [20]): 100
Pigweed plant response rating (pigweed; [21]): 0
Pigweed plant response rating (pigweed; [22]): 10
Pigweed plant response rating (redroot pigweed; [15]): 10
Plant response rating, Pigweed (redroot pigweed; [16]): 35
Pigweed plant response rating (redroot pigweed; [17]): 70
Pigweed plant response rating (redroot pigweed; [18]): 40
Morningglory plant response rating (0 to 100 scale) (morningglory [14]; [19]): 0
Plant response rating, Morningglory (morningglory [14]; [20]): 0
Morningglory plant response rating (morningglory [14]; [21]): 0
Morningglory plant response rating (morningglory [14]; [22]): 20
Surinam Grass plant response rating (0 to 100 scale) (Surinam grass; [19]): 0
Plant response rating, Surinam Grass (Surinam grass; [20]): 0
Surinam Grass plant response rating (Surinam grass; [21]): 0
Surinam Grass plant response rating (Surinam grass; [22]): 0
